Consider 25 molecules from patent publication US10981894B2, “Melanocortin subtype-2 receptor (MC2R) antagonists and uses thereof” (Crinetics Pharmaceuticals, Inc., priority 2018, dated 2021).

hMC2 receptor, sequence (Q01718 whole entry): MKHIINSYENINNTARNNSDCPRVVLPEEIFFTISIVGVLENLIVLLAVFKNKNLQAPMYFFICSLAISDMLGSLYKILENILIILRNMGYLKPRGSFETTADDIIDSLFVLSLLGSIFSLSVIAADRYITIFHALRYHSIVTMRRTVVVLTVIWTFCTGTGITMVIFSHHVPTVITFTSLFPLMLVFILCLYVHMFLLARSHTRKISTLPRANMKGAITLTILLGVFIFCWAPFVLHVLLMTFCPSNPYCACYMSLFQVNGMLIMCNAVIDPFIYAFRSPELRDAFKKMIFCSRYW
hMC2 receptor, sequence (Q8TCY5 whole entry partner): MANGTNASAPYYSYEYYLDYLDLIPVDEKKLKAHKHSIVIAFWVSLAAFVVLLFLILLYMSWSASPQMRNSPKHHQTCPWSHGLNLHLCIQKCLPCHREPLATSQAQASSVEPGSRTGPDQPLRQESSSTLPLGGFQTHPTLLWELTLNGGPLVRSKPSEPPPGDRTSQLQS

The test addresses hMC2 receptor (Homo sapiens, UniProt Q01718). The experiment in a line: hMC2 membrane binding assay ([125I]ACTH (1-39) Tyr23, SPA). On the set-up: scale not given here. Conditions: crude hMC2R membranes from CRE-bla-CHO-K1 cells expressing hMC2 receptor and hMRAP; [125I]ACTH (1-39) Tyr23 0.2 nM; 1.5 hours at room temperature; read-out: MC2R binding potency. In outline:
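Ki comes from non-linear regression of SPA scintillation counts. Displacement of 0.2 nM [125I]ACTH(1-39) Tyr23 by compound dose series (usually 0–10,000 nM final) ran 1.5 h at room temperature. Membranes came from CHO-K1 CRE-bla cells stably expressing hMC2R plus hMRAP, bead-coupled in pH 7.4 buffer with 0.2% BSA.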
`CCOc1ncccc1-c1ccc(N2CCN(C(=O)O[C@H](c3ccccc3)C(F)(F)F)C[C@H]2CC)c(C(=O)N[C@@H]2CCNC2)n1` [Compound 1-351, (1R)-2,2,2-trifluoro-1-phenylethyl (3R)-4-(2′-ethoxy-6-{[(3R)-pyrrolidin-3-yl]carbamoyl}-[2,3′-bipyridin]-5-yl)-3-ethylpiperazine-1-carboxylate]: the Ki is less than 0.01 µM. For `CCOc1ncccc1-c1ccc(N2CCN(C(=O)n3ccc4cccc(C#N)c43)C[C@H]2CC)c(C(=O)N[C@@H]2CCN(C)C2)n1` [Compound 1-429, 5-[(2R)-4-(7-cyano-1H-indole-1-carbonyl)-2-ethylpiperazin-1-yl]-2′-ethoxy-N-[(3R)-1-methylpyrrolidin-3-yl]-[2,3′-bipyridine]-6-carboxamide], the Ki is less than 0.01 µM. The value for `CCOc1ncccc1-c1ccc(N2CCN(C(=O)c3ccc(F)cc3C(F)(F)F)C[C@H]2CC)c(C(=O)N[C@@H]2CCNC2)n1` [Compound 1-266, 2′-ethoxy-5-[(2R)-2-ethyl-4-[4-fluoro-2-(trifluoromethyl)benzoyl]piperazin-1-yl]-N-[(3R)-pyrrolidin-3-yl]-[2,3′-bipyridine]-6-carboxamide] was less than 0.01 µM. On to `CCOc1ncccc1-c1ccc(N2CCN(C(=O)C3(C(F)(F)F)CCCC3)C[C@H]2CC)c(C(=O)NC[C@@H]2CCN2)n1` [Compound 1-329, N-{[(2S)-azetidin-2-yl]methyl}-2′-ethoxy-5-[(2R)-2-ethyl-4-[1-(trifluoromethyl)cyclopentanecarbonyl]piperazin-1-yl]-[2,3′-bipyridine]-6-carboxamide], for which the Ki is less than 0.01 µM.

Turning to `CCOc1cccnc1-c1ccc(N2CCN(C(=O)c3ccc(C(F)(F)F)cc3Cl)C[C@H]2CC)c(C(=O)NCCN)c1` [Compound 1-32, N-(2-aminoethyl)-2-[(2R)-4-[2-chloro-4-(trifluoromethyl)benzoyl]-2-ethylpiperazin-1-yl]-5-(3-ethoxypyridin-2-yl)benzamide], the Ki was 0.01 to 0.1 µM.

`CCOc1ncccc1-c1ccc(N2CCN(C(=O)c3ccc(F)cc3C(F)(F)F)C[C@H]2CC)c(CN)n1` [Compound 2-20, 1-{2′-ethoxy-5-[(2R)-2-ethyl-4-[4-fluoro-2-(trifluoromethyl)benzoyl]piperazin-1-yl]-[2,3′-bipyridin]-6-yl}methanamine]: the Ki was less than 0.01 µM. As to `CCOc1ccc(C(=O)N2CCN(c3ccc(-c4cccnc4OCC)nc3CN)[C@H](CC)C2)c(C(F)(F)F)n1` [Compound 2-30], the Ki was less than 0.01 µM. Turning to `CCOc1ncccc1-c1ccc(N2CCN(C(=O)c3ccc(Cl)cc3N3CCC(N)CC3)C[C@H]2CC)c(C(=O)NCCN)c1` [Compound 1-52, N-(2-aminoethyl)-2-[(2R)-4-[2-(4-aminopiperidin-1-yl)-4-chlorobenzoyl]-2-ethylpiperazin-1-yl]-5-(2-ethoxypyridin-3-yl)benzamide], the Ki is less than 0.01 µM. With `CCOc1ncccc1-c1ccc(N2CCN(C(=O)c3ccc(Cl)cc3C(F)(F)F)C[C@H]2CC)c(C(=O)NCC2=NCCN2)c1` [Compound 1-125, 2-[(2R)-4-[4-chloro-2-(trifluoromethyl)benzoyl]-2-ethylpiperazin-1-yl]-N-[(4,5-dihydro-1H-imidazol-2-yl)methyl]-5-(2-ethoxypyridin-3-yl)benzamide], the Ki was less than 0.01 µM.

Regarding `CCOc1ncccc1-c1ccc(N2CCN(C(=O)c3ccc(F)cc3Cl)C[C@H]2CC)c(C(=O)NCCNC)c1F` [Compound 1-96, 6-[(2R)-4-(2-chloro-4-fluorobenzoyl)-2-ethylpiperazin-1-yl]-3-(2-ethoxypyridin-3-yl)-2-fluoro-N-[2-(methylamino)ethyl]benzamide], the Ki was less than 0.01 µM. The same measure for `CCOc1ncccc1-c1ccc(N2CCN(C(=O)c3c(F)cc(C)cc3-c3ccc(CN)cc3)C[C@H]2CC)c(C(=O)NCCN)c1` [Compound 1-44, N-(2-aminoethyl)-2-[(2R)-4-[4′-(aminomethyl)-3-fluoro-5-methyl-[1,1′-biphenyl]-2-carbonyl]-2-ethylpiperazin-1-yl]-5-(2-ethoxypyridin-3-yl)benzamide]: less than 0.01 µM; for `CCOc1ncccc1-c1ccc(N2CCN(C(=O)N3CCc4cccc(C(F)(F)F)c43)C[C@H]2CC)c(C(=O)N[C@@H]2CCNC2)n1` [Compound 1-361, 2′-ethoxy-5-[(2R)-2-ethyl-4-[7-(trifluoromethyl)-2,3-dihydro-1H-indole-1-carbonyl]piperazin-1-yl]-N-[(3R)-pyrrolidin-3-yl]-[2,3′-bipyridine]-6-carboxamide]: less than 0.01 µM; for `CCOc1ncccc1-c1ccc(N2CCN(C(=O)c3ccc(Cl)cc3C(F)(F)F)C[C@H]2CC)c(C(=O)NCCc2cnc[nH]2)c1` [Compound 1-84, 2-[(2R)-4-[4-chloro-2-(trifluoromethyl)benzoyl]-2-ethylpiperazin-1-yl]-5-(2-ethoxypyridin-3-yl)-N-[2-(1H-imidazol-5-yl)ethyl]benzamide]: less than 0.01 µM. Take `CCOc1ncccc1-c1ccc(N2CCN(C(=O)c3ccc(F)cc3C(F)F)C[C@H]2CC)c(C(=O)NCCN(C)C)c1F` [Compound 1-176, 6-[(2R)-4-[2-(difluoromethyl)-4-fluorobenzoyl]-2-ethylpiperazin-1-yl]-N-[2-(dimethylamino)ethyl]-3-(2-ethoxypyridin-3-yl)-2-fluorobenzamide]: the Ki is less than 0.01 µM. With `CCOc1ncccc1-c1ccc(N2CCN(C(=O)n3ccc4cccc(C(F)(F)F)c43)C[C@H]2CC)c(C(=O)N[C@@H]2CCN(C)C2)n1` [Compound 1-436, 2′-ethoxy-5-[(2R)-2-ethyl-4-[7-(trifluoromethyl)-1H-indole-1l-carbonyl]piperazin-1-yl]-N-[(3R)-1-methylpyrrolidin-3-yl]-[2,3′-bipyridine]-6-carboxamide], the Ki is less than 0.01 µM. Turning to `CCOc1ccccc1-c1ccc(N2CCN(C(=O)C34CCC(C(F)(F)F)(CC3)C4)C[C@H]2CC)c(C(=O)N[C@@H]2CCN(C)C2)n1` [Compound 1-388, 6-(2-ethoxyphenyl)-3-[(2R)-2-ethyl-4-[4-(trifluoromethyl)bicyclo[2.2.1]heptane-1-carbonyl]piperazin-1-yl]-N-[(3R)-1-methylpyrrolidin-3-yl]pyridine-2-carboxamide], the Ki is less than 0.01 µM. `CCOc1ccccc1-c1ccc(N2CCN(C(=O)c3ccccc3-c3ccc(CN)c(F)c3)C[C@H]2CC)c(C(=O)NCCN)c1` [Compound 1-26, N-(2-aminoethyl)-4-[(2R)-4-[4′-(aminomethyl)-3′-fluoro-[1,1′-biphenyl]-2-carbonyl]-2-ethylpiperazin-1-yl]-2′-ethoxy-[1,1′-biphenyl]-3-carboxamide]: the Ki was less than 0.01 µM. The same measure for `CCOc1ncccc1-c1ccc(N2CCN(C(=O)c3ccc(C)cc3N3CC[C@H](NC)C3)C[C@H]2CC)c(C(=O)N[C@@H]2CCNC2)c1` [Compound 1-94, 5-(2-ethoxypyridin-3-yl)-2-[(2R)-2-ethyl-4-{4-methyl-2-[(3S)-3-(methylamino)pyrrolidin-1-yl]benzoyl}piperazin-1-yl]-N-[(3R)-pyrrolidin-3-yl]benzamide]: less than 0.01 µM; for `CCOc1ncccc1-c1ccc(N2CCN(C(=O)c3ccc(OC)cc3C(F)(F)F)C[C@H]2CC)c(C(=O)NCCN(C)C)c1F` [Compound 1-168, N-[2-(dimethylamino)ethyl]-3-(2-ethoxypyridin-3-yl)-6-[(2R)-2-ethyl-4-[4-methoxy-2-(trifluoromethyl)benzoyl]piperazin-1-yl]-2-fluorobenzamide]: less than 0.01 µM; for `CCOc1ncccc1-c1ccc(N2CCN(C(=O)N3CCc4cccc(F)c43)C[C@H]2CC)c(C(=O)N[C@@H]2CCNC2)n1` [Compound 1-350, 2′-ethoxy-5-[(2R)-2-ethyl-4-(7-fluoro-2,3-dihydro-1H-indole-1-carbonyl)piperazin-1-yl]-N-[(3R)-pyrrolidin-3-yl]-[2,3′-bipyridine]-6-carboxamide]: less than 0.01 µM. Consider `CC[C@@H]1CN(C(=O)c2ccc(C(F)(F)F)cc2Cl)CCN1c1ccc(-c2ccccc2C)cc1C(=O)NCCN` [Compound 1-8, N-(2-aminoethyl)-4-[(2R)-4-[2-chloro-4-(trifluoromethyl)benzoyl]-2-ethylpiperazin-1-yl]-2′-methyl-[1,1′-biphenyl]-3-carboxamide], for which the Ki is 0.01 to 0.1 µM. The value for `CCOc1ccccc1-c1ccc(N2CCN(C(=O)N3CCc4cc(F)cc(Cl)c43)C[C@H]2CC)c(C(=O)N[C@H]2CCN(C)C2)n1` [Compound 1-421, 3-[(2R)-4-(7-chloro-5-fluoro-2,3-dihydro-1H-indole-1-carbonyl)-2-ethylpiperazin-1-yl]-6-(2-ethoxyphenyl)-N-[(3S)-1-methylpyrrolidin-3-yl]pyridine-2-carboxamide] was less than 0.01 µM. On to `CCOc1ncccc1-c1ccc(N2CCN(C(=O)c3ccc(Cl)cc3C(F)(F)F)C[C@H]2CC)c(C(=O)NC2CNC2)c1F` [Compound 1-198, N-(azetidin-3-yl)-6-[(2R)-4-[4-chloro-2-(trifluoromethyl)benzoyl]-2-ethylpiperazin-1-yl]-3-(2-ethoxypyridin-3-yl)-2-fluorobenzamide], for which the Ki is less than 0.01 µM. The same measure for `CCOc1ncccc1-c1ccc(N2CCN(C(=O)c3ccc(Cl)cc3N3CC[C@H](N(C)C)C3)C[C@H]2CC)c(C(=O)N[C@@H]2CCNC2)c1` [Compound 1-115, 2-[(2R)-4-{4-chloro-2-[(3S)-3-(dimethylamino)pyrrolidin-1-yl]benzoyl}-2-ethylpiperazin-1-yl]-5-(2-ethoxypyridin-3-yl)-N-[(3R)-pyrrolidin-3-yl]benzamide]: less than 0.01 µM; for `CCOc1ncccc1-c1ccc(N2CCN(C(=O)n3ccc4cc(F)cc(Cl)c43)C[C@H]2CC)c(C(=O)N[C@@H]2CCN(C)C2)n1` [Compound 1-425, 5-[(2R)-4-(7-chloro-5-fluoro-1H-indole-1-carbonyl)-2-ethylpiperazin-1-yl]-2′-ethoxy-N-[(3R)-1-methylpyrrolidin-3-yl]-[2,3′-bipyridine]-6-carboxamide]: less than 0.01 µM.
